Results reported in patent US20240041877A1, “DOSAGE REGIME AND METHOD FOR TREATING PULMONARY ARTERIAL HYPERTENSION” (Altavant Sciences GmbH, priority 2019, published 2024).

How the values were obtained:
Type in all cases: in vivo, human
[1] = Part 1 (SAD): urine pharmacokinetics (amount excreted, renal clearance) after a single oral dose of KAR5585
[2] = test system: urine 5-HIAA (a PD marker of 5-HT synthesis); experiment: Part 2 (MAD) biomarker: urine 5-HIAA/24 hours (measured, adjusted, estimated, per gram creatinine); settings: for Measured urine 5-HIAA: mean difference of % change from Day 1 between KAR5585 and placebo / Measured urine 5-HIAA: mean difference of absolute change from Day 1 between KAR5585 and placebo: no creatinine adjustment
Excerpt: (§1) Biomarkers were to be evaluated in Part 2 by measuring concentrations of serotonin (5-hydroxytryptamine [5-HT]) in serum and 5-hydroxyindoleacetic acid (5-HIAA) in plasma and urine. As well, the relationship of biomarkers to PK parameters was to be evaluated.
(§2) The biomarker analysis was to be based on the Biomarker Population (all subjects with evaluable biomarker measurements at baseline [Day 1 predose] and at least one after dosing [Day 7 or Day 14]).
(§3) Biomarker data were to be collected only in Part 2. The following biomarkers were to be analyzed: • Serum 5-HT • Plasma 5-HIAA • Urine 5-HIAA/24 hours (as measured, adjusted, estimated, and per gram creatinine)
(§4) Summary statistics (mean, standard deviation [SD], median, minimum [Min], and maximum [Max]) were to be tabulated for each biomarker, by Cohort, with absolute and relative (%) changes from Day 1 predose.
(§5) The values were to be tabulated with P values testing whether the difference of changes was equal to 0.
(§6) The biomarker portion of the study was conducted in Part 2 MAD using the Biomarker Population. The biomarkers evaluated were serum 5-HT and plasma 5-HIAA, as well as urine 5-HIAA/24 hours (as measured, adjusted, estimated, and per gram creatinine). Urinary 5-HIAA was determined by a validated (21 C.F.R. 58, GLP-compliant) method using liquid chromatographic separation and tandem mass spectrometry detection.
Urine 5 HIAA/24 hour was analyzed in 4 different manners: as measured in the 24-hour collection and (in order to correct for any collection errors) adjusted for creatinine excretion, estimated by the expected creatinine excretion for the subject (as defined in and expressed per gram creatinine. Results were similar for each of the 4 manners and are presented in this report for measured urine. Tables and figures for adjusted, estimated, and per-gram creatinine results are presented in Section 14.

[3] = test system: plasma 5-HIAA (a PD marker of 5-HT synthesis); experiment: Part 2 (MAD) biomarker: plasma 5-HIAA change from Day 1 predose
Excerpt: as §1, §2, §3
The a priori primary biomarker endpoint was to be the change in plasma 5-HIAA concentration on Day 14 from Day 1.
as §4, §5, §6

[4] = KAR5585 in urine, 1200 mg KAR5585 single oral dose, mean

Question: With `CCOC(=O)[C@@H]1CC2(CCN(c3cc(O[C@H](c4ccc(Cl)cc4-c4ccccc4)C(F)(F)F)nc(N)n3)CC2)CN1` [KAR5585, (S)-ethyl 8-(2-amino-6-((R)-1-(5-chloro-[1,1′-biphenyl]-2-yl)-2,2,2-trifluoroethoxy)pyrimidin-4-yl)-2,8-diazaspiro[4.5]decane-3-carboxylate] as the compound, how does the “Amount Excreted (Ae)” value [1, 4] read?
Answer: 0 µg

Question: What about the “Total Excreted (%)” value [1, 4] of the same compound?
Answer: 0%

Question: And the “Total Excreted (%)” value ([1]; KAR5585 in urine, 2000 mg KAR5585 single oral dose, mean)?
Answer: 0.0000751%

Question: What about the CL renal ([1]; human, urine, po, 400 mg, KAR5585, 400 mg (Fasted) KAR5585 single oral dose, mean) of the same compound?
Answer: 0.858 mL/min

Question: And the “amount excreted (Ae) in urine” value ([1]; single oral KAR5585, all dose levels)?
Answer: less than 0.004 % of the administered dose

Question: And the “Measured urine 5-HIAA: mean difference of % change from Day 1 between KAR5585 and placebo” value ([2]; 100 mg fasting, Day 7)?
Answer: −31.97%

Question: What about the “Measured urine 5-HIAA: mean difference of absolute change from Day 1 between KAR5585 and placebo” value ([2]; 100 mg fasting, Day 7) of the same compound?
Answer: −0.92 mg/24 hours

Question: And the “Measured urine 5-HIAA: mean difference of % change from Day 1 between KAR5585 and placebo” value ([2]; 100 mg fasting, Day 14)?
Answer: −17.65%

Question: What about the “Measured urine 5-HIAA: mean difference of absolute change from Day 1 between KAR5585 and placebo” value ([2]; 100 mg fasting, Day 14) of the same compound?
Answer: −0.91 mg/24 hours

Question: And the “Measured urine 5-HIAA: mean difference of % change from Day 1 between KAR5585 and placebo” value ([2]; 100 mg fed, Day 7)?
Answer: −50.34%

Question: And the “Measured urine 5-HIAA: mean difference of absolute change from Day 1 between KAR5585 and placebo” value ([2]; 100 mg fed, Day 7)?
Answer: −2.09 mg/24 hours

Question: What about the “Measured urine 5-HIAA: mean difference of % change from Day 1 between KAR5585 and placebo” value ([2]; 100 mg fed, Day 14) of the same compound?
Answer: −36.03%

Question: And the “Measured urine 5-HIAA: mean difference of absolute change from Day 1 between KAR5585 and placebo” value ([2]; 100 mg fed, Day 14)?
Answer: −1.65 mg/24 hours

Question: What about the “Measured urine 5-HIAA: mean difference of % change from Day 1 between KAR5585 and placebo” value ([2]; 200 mg fed, Day 7) of the same compound?
Answer: −26.95%

Question: And the “Measured urine 5-HIAA: mean difference of absolute change from Day 1 between KAR5585 and placebo” value ([2]; 200 mg fed, Day 7)?
Answer: −0.92 mg/24 hours

Question: And the “Measured urine 5-HIAA: mean difference of % change from Day 1 between KAR5585 and placebo” value ([2]; 200 mg fed, Day 14)?
Answer: −37.11%

Question: What about the “Measured urine 5-HIAA: mean difference of absolute change from Day 1 between KAR5585 and placebo” value ([2]; 200 mg fed, Day 14) of the same compound?
Answer: −1.58 mg/24 hours

Question: What about the “Measured urine 5-HIAA: mean difference of % change from Day 1 between KAR5585 and placebo” value ([2]; 400 mg fed, Day 7) of the same compound?
Answer: −49.41%

Question: And the “Measured urine 5-HIAA: mean difference of absolute change from Day 1 between KAR5585 and placebo” value ([2]; 400 mg fed, Day 7)?
Answer: −1.68 mg/24 hours

Question: What about the “Measured urine 5-HIAA: mean difference of % change from Day 1 between KAR5585 and placebo” value ([2]; 400 mg fed, Day 14) of the same compound?
Answer: −54.82%

Question: What about the “Measured urine 5-HIAA: mean difference of absolute change from Day 1 between KAR5585 and placebo” value ([2]; 400 mg fed, Day 14) of the same compound?
Answer: −2.04 mg/24 hours

Question: And the “absolute and percent changes from Day 1 in creatinine-normalized urine 5-HIAA vs placebo, significance” value ([2]; Days 7 and 14)?
Answer: statistically significant in favor of KAR5585 versus placebo in all dose groups

Question: What about the “mean percent change in measured urine 5-HIAA from Day 1 to Day 7” value ([2]; KAR5585 400 mg BID, fed) of the same compound?
Answer: −39.97%

Question: What about the “mean percent change in measured urine 5-HIAA from Day 1 to Day 14” value ([2]; KAR5585 400 mg BID, fed, listed as KAR5575) of the same compound?
Answer: −50.85%

Question: And the “Measured urine 5-HIAA: mean difference of % change from Day 1 between KAR5585 and placebo” value ([2]; all doses pooled, Day 7)?
Answer: −40.03%

Question: And the “Measured urine 5-HIAA: mean difference of absolute change from Day 1 between KAR5585 and placebo” value ([2]; all doses pooled, Day 7)?
Answer: −1.42 mg/24 hours

Question: And the “Measured urine 5-HIAA: mean difference of % change from Day 1 between KAR5585 and placebo” value ([2]; all doses pooled, Day 14)?
Answer: −36.39%

Question: What about the “Measured urine 5-HIAA: mean difference of absolute change from Day 1 between KAR5585 and placebo” value ([2]; all doses pooled, Day 14) of the same compound?
Answer: −1.54 mg/24 hours

Question: And the “Plasma 5-HIAA: mean difference of % change from Day 1 between KAR5585 and placebo” value ([3]; 100 mg fasting, predose Day 7)?
Answer: 23.67%

Question: What about the “Plasma 5-HIAA: mean difference of absolute change from Day 1 between KAR5585 and placebo” value ([3]; 100 mg fasting, predose Day 7) of the same compound?
Answer: 0.33 ng/mL

Question: What about the “Plasma 5-HIAA: mean difference of % change from Day 1 between KAR5585 and placebo” value ([3]; 100 mg fasting, predose Day 14) of the same compound?
Answer: −48.83%

Question: What about the “Plasma 5-HIAA: mean difference of absolute change from Day 1 between KAR5585 and placebo” value ([3]; 100 mg fasting, predose Day 14) of the same compound?
Answer: -5.92 ng/mL

Question: What about the “Plasma 5-HIAA: mean difference of % change from Day 1 between KAR5585 and placebo” value ([3]; 100 mg fed, predose Day 7) of the same compound?
Answer: −48.56%

Question: And the “Plasma 5-HIAA: mean difference of absolute change from Day 1 between KAR5585 and placebo” value ([3]; 100 mg fed, predose Day 7)?
Answer: -4.56 ng/mL

Question: And the “Plasma 5-HIAA: mean difference of % change from Day 1 between KAR5585 and placebo” value ([3]; 100 mg fed, predose Day 14)?
Answer: −52.70%

Question: What about the “Plasma 5-HIAA: mean difference of absolute change from Day 1 between KAR5585 and placebo” value ([3]; 100 mg fed, predose Day 14) of the same compound?
Answer: -4.50 ng/mL

Question: And the “Plasma 5-HIAA: mean difference of % change from Day 1 between KAR5585 and placebo” value ([3]; 200 mg fed, predose Day 7)?
Answer: 12.06%

Question: And the “Plasma 5-HIAA: mean difference of absolute change from Day 1 between KAR5585 and placebo” value ([3]; 200 mg fed, predose Day 7)?
Answer: 1.22 ng/mL

Question: What about the “Plasma 5-HIAA: mean difference of % change from Day 1 between KAR5585 and placebo” value ([3]; 200 mg fed, predose Day 14) of the same compound?
Answer: −52.46%
